From patent US20030162777A1, “Novel N-acylated heterocycles” (Recordati S.A., priority 2001, published 2003)

What follows are compounds tested against T1, human 5HT1A-serotonergic receptor (Homo sapiens, UniProt P08908) (assay: Radioligand binding to recombinant 5-HT1A receptors). Settings: [3H]8-OH-DPAT 1 nM, membranes of HeLa cells with human 5-HT1A receptor; Ki from IC50 by Cheng & Prusoff; read-out: Binding affinity for 5HT1A receptors, Ki.
T1 construct: expressed in transfected cells; host or cells: HeLa (human cell line), stably transfected; cell membranes used
T1 sequence (P08908 1-422): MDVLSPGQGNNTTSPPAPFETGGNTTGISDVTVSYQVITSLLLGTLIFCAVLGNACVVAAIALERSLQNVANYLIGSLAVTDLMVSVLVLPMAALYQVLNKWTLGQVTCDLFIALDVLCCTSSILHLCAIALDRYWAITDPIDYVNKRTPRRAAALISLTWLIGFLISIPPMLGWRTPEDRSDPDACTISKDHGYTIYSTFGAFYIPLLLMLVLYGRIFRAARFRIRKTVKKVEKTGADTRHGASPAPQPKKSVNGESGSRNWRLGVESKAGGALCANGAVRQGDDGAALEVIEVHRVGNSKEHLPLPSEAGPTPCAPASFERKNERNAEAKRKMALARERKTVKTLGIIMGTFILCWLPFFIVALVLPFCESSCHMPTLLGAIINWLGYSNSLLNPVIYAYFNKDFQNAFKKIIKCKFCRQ
Description: Genomic clone G-21 coding for the human 5HT1A-serotonergic receptor was stably transfected in a human cell line (HeLa). HeLa cells were grown as monolayers in Dulbecco's modified Eagle medium (DMEM), containing 10% foetal bovine serum, gentamicin ([…]) and 5% carbon dioxide, at 37° C. The cells were detached from the growth flask at 95% confluence by a cell scraper and were lysed in cold 5 mM Tris and 5 mM EDTA buffer (pH 7.4). The homogenates were centrifuged at 40000×g×20 minutes and the pellets were resuspended in a small volume of cold 5 mM Tris and 5 mM EDTA buffer (pH 7.4) and immediately frozen and stored at −70° C. until use. On the day of experiment, the cell membranes were resuspended in incubation buffer: 50 mM Tris HCl (pH 7.4), 2.5 mM MgCl2, […] (Fargin et al., Nature 335, 358-360, 1988). The membranes were incubated in a final volume of 1 ml for 30 minutes at 30° C. with 1 nM [^3H]8-OH-DPAT, in the absence or presence of the test compounds. Non-specific binding was determined in the presence of 10 μM 5-HT. Incubation was stopped by addition of cold Tris-HC 1 buffer and rapid filtration through a 0.2%-polyethyleneimine-pretreated Whatman-GF/B or Schleicher-&-Schuell-GF52 filter.
The affinity of the tested compounds was evaluated as inhibition of specific binding of the radioligand to 5-HT1A receptors (IC50) by using the non-linear curve-fitting program Allfit (De Lean et al., Am. J. Physiol. 235, E97-E102 (1978). The IC50 value was converted to an affinity constant (Ki) by the equation of Cheng & Prusoff (Cheng Y. C., Prusoff W. H., Biochem. Pharmacol. 22, 3099-3108 (1973)).

Row | Structure (SMILES) | Ki [nM]
1 | CCCCCNC(=O)N1c2ccccc2CCC1CN1CCN(c2cccc3[nH]ccc23)CC1 (centres unmarked) [Example 69A11, 1-(4-Indolyl)-4-(1-pentylaminocarbonyl-1,2,3,4-tetrahydroquinoline-2-ylmethyl]piperazine] | 10.4
2 | O=C(C1CCCCC1)N1c2ccccc2CCC1CN1CCC(c2cccc(Cl)c2Cl)CC1 (centres unmarked) [Example 72A51, 1-(1-Cyclohexanecarbonyl-1,2,3,4-tetrahydroquinolin-2-ylmethyl)-4-(2,3-dichlorophenyl)piperidine] | 15
3 | N#Cc1ccc(C(=O)N2c3ccccc3CCC2CN2CCN(c3nccc4ccccc34)CC2)cc1 (centres unmarked) [Example 75A6, 1-[1-(4-Cyanobenzoyl)-1,2,3,4-tetrahydroquinolin-2-ylmethyl]-4-(1-isoquinolinyl)piperazine] | 4.3
4 | O=C(C1CCCCC1)N1c2ccccc2CCC1CN1CCCC(Cc2ccccc2)C1 (single isomer, unassigned) [Example 59, 3-Benzyl-1-(1-cyclohexanecarbonyl-1,2,3,4-tetrahydroquinoline-2-ylmethyl)piperidine] | 45.7
5 | O=C(C1CCCCC1)N1c2ccccc2CCC1CN1CCN(c2ccccc2OS(=O)(=O)C(F)(F)F)CC1 (centres unmarked) [Example 79, 1-(1-Cyclohexanecarbonyl-1,2,3,4-tetrahydroquinoline-2-ylmethyl)-4-(2-triluoromethanesulphonyloxyphenyl)piperazine] | 4.5
6 | Cc1ccc(F)c(N2CCN(CC3CCc4ccccc4N3C(=O)C3CCCCC3)CC2)c1 (centres unmarked) [Example 35A12, 1-(1-Cyclohexanecarbonyl-1,2,3,4-tetrahydroquinoline-2-ylmethyl)-4-(2-fluoro-5-methylphenyl)piperazine] | 9.5
7 | CC(C)(C)NC(=O)N1c2ccccc2CCC1CN1CCN(c2nccc3ccccc23)CC1 (centres unmarked) [Example 75A15, 1-(1-Isoquinolinyl)-4-[1-(1,1-Dimethyethylaminocarbonyl)-1,2,3,4-tetrahydroquinolin-2-ylmethyl]piperazine] | 27.7
8 | COCCC(=O)N1c2ccccc2CCC1CN1CCN(c2cccc3[nH]ccc23)CC1 (centres unmarked) [Example 11, 1-[1-(3-Methoxypropionyl)-1,2,3,4-tetrahydroquinoline-2-ylmethyl]-4-(4-indolyl)piperazine] | 40.8
9 | O=S(=O)(c1ccccc1)N1c2ccccc2CCC1CN1CCN(c2cccc3c2OCCO3)CC1 (centres unmarked) [Example 76A10, 1-(1-Benzenesulphonyl-1,2,3,4-tetrahydroquinolin-2-ylmethyl)-4-(2,3-dihydrobenzo[1,4]dioxin-5-yl)piperazine] | 21.5
10 | O=C(Cc1ccccc1)N1c2ccccc2CCC1CN1CCN(c2cccc3[nH]ccc23)CC1 (centres unmarked) [Example 68A2, 1-(4-Indolyl)-4-[1-(2-phenylacetyl)-1,2,3,4-tetrahydroquinoline-2-ylmethyl]piperazine] | 13.9
11 | O=C(Cc1cccs1)N1c2ccccc2CCC1CN1CCN(c2cccc3[nH]ccc23)CC1 (centres unmarked) [Example 68A39, 1-(4-Indolyl)-4-[1-[2-(2-thienylacetyl)]-1,2,3,4-tetrahydroquinoline-2-ylmethyl]piperazine] | 6.8
12 | CC(C)CC(=O)N1c2ccccc2CCC1CN1CCN(c2cccc3[nH]ccc23)CC1 (centres unmarked) [Example 68A12, 1-(4-Indolyl)-4-[1-(3-methylbutanoyl)-1,2,3,4-tetrahydroquinoline-2-ylmethyl]piperazine] | 2.6
13 | CN(CCOc1cccc2[nH]ccc12)CC1CCc2ccccc2N1C(=O)C1CCCCC1 (centres unmarked) [Example 72A86, N-(1-Cyclohexanecarbonyl-1,2,3,4-tetrahydroquinolin-2-ylmethyl)-2-[4-(1H)-indolyloxy]ethylmethylamine] | 4.3
14 | O=C(c1ccccn1)N1c2ccccc2CCC1CN1CCN(c2cccc3[nH]ccc23)CC1 (centres unmarked) [Example 68A32, 1-(4-Indolyl)-4-[1-(2-pyridylcarbonyl)-1,2,3,4-tetrahydroquinoline-2-ylmethyl]piperazine] | 19.4
15 | O=C(c1ccc(O)cc1)N1c2ccccc2CCC1CN1CCN(c2cccc3[nH]ccc23)CC1 (centres unmarked) [Example 68A68, 1-[1-(4-Hydroxybenzoyl)-1,2,3,4-tetrahydroquinoline-2-ylmethyl]-4-(4-indolyl)piperazine] | 7.5
16 | O=C(C1CCCCC1)N1c2ccccc2CCC1CN1CCN(c2c(Cl)cncc2Cl)CC1 (centres unmarked) [Example 72A66, 1-(1-Cyclohexanecarbonyl-1,2,3,4-tetrahydroquinolin-2-ylmethyl)-4-(3,5-dichloropyridin-4-yl)piperazine] | 10.2
17 | CC(C)(C)OC(=O)NCCC(=O)N1c2ccccc2CCC1CN1CCN(c2cccc3[nH]ccc23)CC1 (centres unmarked) [Example 71A1, 1-[1-(3-tert-Butoxycarbonylamino)propionyl-1,2,3,4-tetrahydroquinoline-2-ylmethyl]-4-(4-indolyl)piperazine] | 15.2
18 | CC(C)(C)OC(=O)N1CCC[C@H]1C(=O)N1c2ccccc2CCC1CN1CCN(c2cccc3[nH]ccc23)CC1 (stereo partly drawn) [Example 71A5, 1-[1-(1-tert-Butoxycarbonyl-(2S)-pyrrolidin-2yl)carbonyl-1,2,3,4-tetrahydroquinoline-2-ylmethyl]-4-(4-indolyl)piperazine] | 45
19 | O=S(=O)(c1ccccc1)N1c2ccccc2CCC1CN1CCN(c2cccc3[nH]ccc23)CC1 (centres unmarked) [Example 70A, 1-(4-Indolyl)-1-[1-phenylsulphonyl-1,2,3,4-tetrahydroquinoline-2-ylmethyl]piperazine] | 7.8
20 | O=C(C1CCCCC1)N1c2ccccc2CCC1CN1CCN(c2ccc(Br)c3[nH]ccc23)CC1 (centres unmarked) [Example 35A32, 1-(7-Bromo-4-indolyl)-4-(1-cyclohexanecarbonyl-1,2,3,4-tetrahydroquinoline-2-ylmethyl)piperazine] | 20
21 | CN(CCOc1ccccc1OCC(F)(F)F)CC1CCc2ccccc2N1C(=O)C1CCCCC1 (centres unmarked) [Example 72A85, N-(1-Cyclohexanecarbonyl-1,2,3,4-tetrahydroquinolin-2-ylmethyl)-2-[2-(2,2,2-trifluoroethoxy)phenoxy]ethylmethylamine] | 3.6
22 | CN(CCOc1cccc2cccnc12)CC1CCc2ccccc2N1C(=O)C1CCCCC1 (centres unmarked) [Example 72A87, N-(1-Cyclohexanecarbonyl-1,2,3,4-tetrahydroquinolin-2-ylmethyl)-2-(8-quinolyloxy)ethylmethylamine] | 3.9
23 | Cc1ccc(S(=O)(=O)n2ccc(C(=O)N3c4ccccc4CCC3CN3CCN(c4cccc5[nH]ccc45)CC3)c2)cc1 (centres unmarked) [Example 68A57, 1-(4-Indolyl)-4-[1-[1-(4-methylphenylsulphonyl)pyrrole-3-carbonyl]-1,2,3,4-tetrahydroquinoline-2-ylmethyl]piperazine] | 33
24 | O=C(c1ccc[nH]1)N1c2ccccc2CCC1CN1CCN(c2nccc3ccccc23)CC1 (centres unmarked) [Example 75A3, 1-(1-Isoquinolinyl)-4-[1-(2-pyrrolylcarbonyl)-1,2,3,4-tetrahydroquinolin-2-ylmethyl]piperazine] | 14
25 | CCNC(=O)N1c2ccccc2CCC1CN1CCN(c2cccc3[nH]ccc23)CC1 (centres unmarked) [Example 20, 1-(1-Ethylaminocarbonyl-1,2,3,4-tetrahydroquinoline-2-ylmethyl)-4-(4-indolyl)piperazine] | 38.6
26 | Cn1ccc2c(N3CCN(C[C@H]4CCc5ccccc5N4C(=O)C4CCCCC4)CC3)cccc21 [Example 43, (R)-1-(1-Cyclohexanecarbonyl-1,2,3,4-tetrahydroquinoline-2-ylmethyl)-4-(1-methyl-4-indolyl)piperazine] | 5
27 | O=C(c1ccsc1)N1c2ccccc2CCC1CN1CCN(c2cccc3[nH]ccc23)CC1 (centres unmarked) [Example 68A20, 1-(4-Indolyl)-4-[1-(3-thienylcarbonyl)-1,2,3,4-tetrahydroquinoline-2-ylmethyl]piperazine] | 30.7
28 | O=C(C1CCCCC1)N1c2ccccc2CCC1CN1CCC(c2c(F)cccc2Cl)CC1 (centres unmarked) [Example 72A53, 4-(2-Chloro-6-fluorophenyl)-1-(1-cyclohexanecarbonyl-1,2,3,4-tetrahydroquinolin-2-ylmethyl)piperidine] | 6.1
29 | COc1cc(F)ccc1N1CCN(CC2CCc3cc(C)ccc3N2C(=O)CC2CCCCC2)CC1 (centres unmarked) [Example 73A6, 1-(1-Cyclohexylacetyl-1,2,3,4-tetrahydroquinolin-6-methyl-2-ylmethyl)-4-(4-fluoro-2-methoxyphenyl)piperazine] | 18.1
